From the RepoRT retention time repository (doi:10.1016/j.scitotenv.2015.08.078)

Test: RP, Waters ACQUITY UPLC BEH C18, 100 × 2.1 mm, 1.7 µm, 0.3 mL/min, estimated dead time 0.73 min; A: water + 0.1% formic acid, pH 3; B: methanol + 0.1% formic acid, pH 3; gradient (min/%B) 0/10 14/90 16/90 18/10
Settings: stereoisomer not certain

Compound | LC retention time [min]
O=C(Nc1ccc(F)cc1F)c1cccnc1Oc1cccc(C(F)(F)F)c1 [Diflufenican] | 12.7
CN(C)C(=O)Nc1ccc(-n2nc(C(C)(C)C)oc2=O)c(Cl)c1 [Dimefuron] | 9.63
CC(C)(SC(=O)N1CCCCC1)c1ccccc1 [Dimepiperate] | 12.3
COCCN(C(=O)CCl)c1c(C)cccc1C [Dimethachlor] | 9.39
CCNc1nc(NC(C)C(C)C)nc(SC)n1 (centres undefined) [Dimethametryn] | 11.4
COCC(C)N(C(=O)CCl)c1c(C)csc1C (centres undefined) [Dimethenamid] | 10.1
CNC(=O)CSP(=S)(OC)OC [Dimethoate] | 5.37
Cc1ncc([N+](=O)[O-])n1C [Dimetridazole] | 2.68
CC(C)(C)C(O)C(=Cc1ccc(Cl)cc1Cl)n1cncn1 (centres undefined) [Diniconazole] | 12.2
CN(C)CCOC(c1ccccc1)c1ccccc1 [Diphenhydramine] | 7.71
c1ccc(Nc2ccccc2)cc1 [Diphenylamine] | 10.5
CCCOC(=O)c1ccccc1C(=O)OCCC [Dipropyl phthalate] | 11.1
CCOP(=S)(OCC)SCCS(=O)(=O)CC [Disulfoton-sulfone] | 8.76
CN(C)C(=O)Nc1ccc(Cl)c(Cl)c1 [Diuron] | 9.72
CC1CN(C2CCCCCCCCCCC2)CC(C)O1 (centres undefined) [Dodemorph] | 13.4
COC1CC(OC2C(C)OC(OC3C(C)=CCC4CC(CC5(C=CC(C)C(C6CCCCC6)O5)O4)OC(=O)C4C=C(C)C(O)C5OCC(=CC=CC3C)C45O)CC2OC)OC(C)C1O (centres undefined) [Doramectine] | 15.7
CC1c2cccc(O)c2C(O)=C2C(=O)C3(O)C(O)=C(C(N)=O)C(=O)C(N(C)C)C3C(O)C21 (centres undefined) [Doxycycline] | 7.42
CCOP(=S)(Oc1ccc([N+](=O)[O-])cc1)c1ccccc1 (centres undefined) [EPN] | 12.2
CCOP(=O)(Sc1ccccc1)Sc1ccccc1 [Edifenphos] | 11.7
CCC(C)C1OC2(C=CC1C)CC1CC(CC=C(C)C(OC3CC(OC)C(OC4CC(OC)C(NC)C(C)O4)C(C)O3)C(C)C=CC=C3COC4C(O)C(C)=CC(C(=O)O1)C34O)O2 (centres undefined) [Emamectin B1a] | 13.8
CCOC(=O)C(CCc1ccccc1)NC(C)C(=O)N1CCCC1C(=O)O (centres undefined) [Enalapril] | 7.86

Compound | LC retention time [min]
CCN1CCN(c2cc3c(cc2F)c(=O)c(C(=O)O)cn3C2CC2)CC1 [Enrofloxacin] | 4.58
CCC(C)C1OC2(C=CC1C)CC1CC(CC=C(C)C(OC3CC(OC)C(OC4CC(OC)C(NC(C)=O)C(C)O4)C(C)O3)C(C)C=CC=C3COC4C(O)C(C)=CC(C(=O)O1)C34O)O2 (centres undefined) [Eprinomectin] | 15.1
CCC1OC(=O)C(C)C(OC2CC(C)(OC)C(O)C(C)O2)C(C)C(OC2OC(C)CC(N(C)C)C2O)C(C)(O)CC(C)C(=O)C(C)C(O)C1(C)O (centres undefined) [Erythromycin] | 9.41
CCN(C(=O)SCc1ccccc1)C(C)C(C)C (centres undefined) [Esprocarb] | 12.8
CCS(=O)(=O)Cc1ccccc1OC(=O)NC [Ethiofencarb sulfone] | 4.07
CCS(=O)Cc1ccccc1OC(=O)NC (centres undefined) [Ethiofencarb sulfoxide] | 4.6
CCSCc1ccccc1OC(=O)NC [Ethiofencarb] | 8.89
CCOP(=S)(OCC)SCSP(=S)(OCC)OCC [Ethion] | 13.4
CCCCc1c(C)nc(NCC)[nH]c1=O [Ethirimol] | 8.99
CCOc1ccc(C(C)(C)COCc2cccc(Oc3ccccc3)c2)cc1 [Ethofenprox] | 15.1
CCOC1Oc2ccc(OS(C)(=O)=O)cc2C1(C)C (centres undefined) [Ethofumesate] | 9.89
CCCSP(=O)(OCC)SCCC [Ethoprophos] | 11.1
CCOc1ccc2c(c1)C(C)=CC(C)(C)N2 [Ethoxyquin] | 9.64
CCOc1ccccc1OS(=O)(=O)NC(=O)Nc1nc(OC)cc(OC)n1 [Ethoxysulfuron] | 8.41
CCOc1cc(C(C)(C)C)ccc1C1COC(c2c(F)cccc2F)=N1 (centres undefined) [Etoxazole] | 13.5
CCOc1cc(OP(=S)(OC)OC)nc(CC)n1 [Etrimfos] | 11.6
CCOP(=O)(NC(C)C)Oc1ccc(SC)c(C)c1 (centres undefined) [Fenamiphos] | 11.3
OC(c1ccc(Cl)cc1)(c1cncnc1)c1ccccc1Cl (centres undefined) [Fenarimol] | 11.6
N#CC(CCc1ccc(Cl)cc1)(Cn1cncn1)c1ccccc1 (centres undefined) [Fenbuconazole] | 11.1
CC1(C(=O)Nc2ccc(O)c(Cl)c2Cl)CCCCC1 [Fenhexamid] | 11.5
COP(=S)(OC)Oc1ccc([N+](=O)[O-])c(C)c1 [Fenitrothion] | 10.5

Compound | LC retention time [min]
CCC(C)c1ccccc1OC(=O)NC (centres undefined) [Fenobucarb] | 9.78
CCOC(=O)C(C)Oc1ccc(Oc2nc3ccc(Cl)cc3o2)cc1 (centres undefined) [Fenoxaprop-ethyl] | 12.7
CC(Oc1ccc(Oc2nc3ccc(Cl)cc3o2)cc1)C(=O)O (centres undefined) [Fenoxaprop] | 11.6
COP(=O)(OC)Oc1ccc(S(C)(=O)=O)c(C)c1 [Fenoxon sulfone] | 5.35
COP(=O)(OC)Oc1ccc(S(C)=O)c(C)c1 (centres undefined) [Fenoxon sulfoxide] | 5.14
CCOC(=O)NCCOc1ccc(Oc2ccccc2)cc1 [Fenoxycarb] | 12.4
N#Cc1c[nH]cc1-c1cccc(Cl)c1Cl [Fenpiclonil] | 9.52
CC1(C)C(C(=O)OC(C#N)c2cccc(Oc3ccccc3)c2)C1(C)C (centres undefined) [Fenpropathrin] | 13.7
CC(Cc1ccc(C(C)(C)C)cc1)CN1CCCCC1 (centres undefined) [Fenpropidin] | 10
CC(Cc1ccc(C(C)(C)C)cc1)CN1CC(C)OC(C)C1 (centres undefined) [Fenpropimorph] | 14.1
Cc1nn(C)c(Oc2ccccc2)c1C=NOCc1ccc(C(=O)OC(C)(C)C)cc1 [Fenpyroximate] | 13.7
COP(=O)(OC)Oc1ccc(SC)c(C)c1 [Fenthion oxon] | 9.48
COP(=S)(OC)Oc1ccc(S(C)=O)c(C)c1 (centres undefined) [Fenthion sulfoxide] | 7.8
COP(=S)(OC)Oc1ccc(SC)c(C)c1 [Fenthion] | 11.7
N#Cc1nn(-c2c(Cl)cc(C(F)(F)F)cc2Cl)c(N)c1S(=O)C(F)(F)F (centres undefined) [Fipronil] | 11.3
CC(C)OC(=O)C(C)N(C(=O)c1ccccc1)c1ccc(F)c(Cl)c1 (centres undefined) [Flamprop-isopropyl] | 11.7
COC(=O)C(C)N(C(=O)c1ccccc1)c1ccc(F)c(Cl)c1 (centres undefined) [Flamprop-methyl] | 10.7
COc1cc(OC)nc(NC(=O)NS(=O)(=O)c2ncccc2C(F)(F)F)n1 [Flazasulfuron] | 7.14
CCCCOC(=O)C(C)Oc1ccc(Oc2ccc(C(F)(F)F)cn2)cc1 (centres undefined) [Fluaziflop-P-butyl] | 13.1
O=C(NC(=O)c1c(F)cccc1F)Nc1ccc(CON=C(c2ccc(Cl)cc2)C2CC2)cc1 [Flucycloxuron] | 13.4
N#Cc1c[nH]cc1-c1cccc2c1OC(F)(F)O2 [Fludioxonil] | 10.1

Compound | LC retention time [min]
O=C(NC(=O)c1c(F)cccc1F)Nc1ccc(Oc2ccc(C(F)(F)F)cc2Cl)cc1F [Flufenoxuron] | 13.5
CC1CCc2cc(F)cc3c(=O)c(C(=O)O)cn1c23 (centres undefined) [Flumequine] | 7.49
CC1CC2C3CC(F)C4=CC(=O)C=CC4(C)C3(F)C(O)CC2(C)C1(O)C(=O)CO (centres undefined) [Flumethasone] | 9.72
Cc1c(Nc2ncccc2C(=O)O)cccc1C(F)(F)F [Flunixin] | 9.31
CN(C)C(=O)Nc1cccc(C(F)(F)F)c1 [Fluomethuron] | 8.25
O=c1c2cc(F)ccc2nc(-n2cncn2)n1-c1ccc(Cl)cc1Cl [Fluquinconazole] | 10.7
Cn1cc(-c2ccccc2)c(=O)c(-c2cccc(C(F)(F)F)c2)c1 [Fluridone] | 9.63
Nc1c(Cl)c(F)nc(OCC(=O)O)c1Cl [Fluroxypyr] | 7.71
C[Si](Cn1cncn1)(c1ccc(F)cc1)c1ccc(F)cc1 [Flusilazole] | 11.4
CC(C)Oc1cccc(NC(=O)c2ccccc2C(F)(F)F)c1 [Flutolanil] | 10.5
OC(Cn1cncn1)(c1ccc(F)cc1)c1ccccc1F (centres undefined) [Flutriafol] | 8.93
O=C(Nc1ccccc1)Nc1ccnc(Cl)c1 [Forchlorfenuron] | 8.95
CNC(=O)Oc1cccc(N=CN(C)C)c1 [Formetanate] | 2.06
CCOP(=O)(SC(C)CC)N1CCSC1=O (centres undefined) [Fosthiazate] | 8.33
c1coc(-c2nc3ccccc3[nH]2)c1 [Fuberidazole] | 6.61
CCCCC(C)C(OC(=O)CC(CC(=O)O)C(=O)O)C(CC(C)CC(O)CCCCC(O)CC(O)C(C)N)OC(=O)CC(CC(=O)O)C(=O)O (centres undefined) [Fumonisin B1] | 9.48
CCCCC(C)C(OC(=O)CC(CC(=O)O)C(=O)O)C(CC(C)CCCCCCC(O)CC(O)C(C)N)OC(=O)CC(CC(=O)O)C(=O)O (centres undefined) [Fumonisin B2] | 11
COC(=O)C(C)N(C(=O)c1ccco1)c1c(C)cccc1C (centres undefined) [Furalaxyl] | 10
O=C1OC(CN2CCOCC2)CN1N=Cc1ccc([N+](=O)[O-])o1 (centres undefined) [Furaltadone] | 2.64
CCCCOC(=O)N(C)SN(C)C(=O)Oc1cccc2c1OC(C)(C)C2 [Furathiocarb] | 12.8
O=C1OCCN1N=Cc1ccc([N+](=O)[O-])o1 [Furazolidone] | 2.96
